# In patent US20240041991A1, “STABLE LIQUID DISPERSINB COMPOSITIONS” (KANE BIOTECH INC., priority 2020, published 2024):
# Where two headings read alike, the source gives them in different places. Marks after values point to notes of the source that are not given here.
# System: DispersinB
# Assay type: biochemical, Aggregatibacter actinomycetemcomitans
# Settings: for % enzymatic activity of DispersinB (Mean): polyol % as in label; for temperature stabilizing effect on DispersinB at elevated temperatures: 42° C., 52° C., and 62° C.
# Method: Samples from each formula was incubated at 3 different temperatures (42° C., 52° C. and 62° C.) for 3 hours. Following a 3 hour incubation, the samples were brought to room temperature for enzymatic activity assay.
# Two-tailed paired T-test was performed by to compare each polyol containing treatment with the treatment devoid of polyol. Treatment with probability values (p) less than 5% (0.05) was considered significant.
compound,measurement,setting,value
"OC[C@@H](O)[C@@H](O)[C@H](O)[C@H](O)CO[C@H]1O[C@H](CO)[C@@H](O)[C@H](O)[C@H]1O [Isomalt, (2R,3R,4R,5R)-6-[[(2S,3R,4S,5S,6R)-3,4,5-Trihydroxy-6-(hydroxymethyl)-2-tetrahydropyranyl]oxy]hexane-1,2,3,4,5-pentol]",% enzymatic activity of DispersinB (Mean),"4° C., freshly made control without polyol = 100%, listed as 1% Isomalt",105%
same,% enzymatic activity of DispersinB (Mean),"4° C., freshly made control without polyol = 100%, listed as 2.5% Isomalt",105%
same,% enzymatic activity of DispersinB (Mean),"4° C., freshly made control without polyol = 100%, listed as 3% Isomalt",106%
same,% enzymatic activity of DispersinB (Mean),"4° C., freshly made control without polyol = 100%, listed as 5% Isomalt",107%
same,% enzymatic activity of DispersinB (Mean),"4° C., freshly made control without polyol = 100%, listed as 10% Isomalt",106%
same,% enzymatic activity of DispersinB (Mean),"4° C., freshly made control without polyol = 100%, listed as 15% Isomalt",101%
same,% enzymatic activity of DispersinB (Mean),"4° C., freshly made control without polyol = 100%, listed as 20% Isomalt",102%
same,% enzymatic activity of DispersinB (Mean),"42° C. for 3 hours, control without polyol = 100%, listed as 1% Isomalt",102* %
same,% enzymatic activity of DispersinB (Mean),"42° C. for 3 hours, control without polyol = 100%, listed as 2.5% Isomalt",100* %
same,% enzymatic activity of DispersinB (Mean),"42° C. for 3 hours, control without polyol = 100%, listed as 3% Isomalt",100* %
same,% enzymatic activity of DispersinB (Mean),"42° C. for 3 hours, control without polyol = 100%, listed as 5% Isomalt",99* %
same,% enzymatic activity of DispersinB (Mean),"42° C. for 3 hours, control without polyol = 100%, listed as 10% Isomalt",107* %
same,% enzymatic activity of DispersinB (Mean),"42° C. for 3 hours, control without polyol = 100%, listed as 15% Isomalt",106* %
same,% enzymatic activity of DispersinB (Mean),"42° C. for 3 hours, control without polyol = 100%, listed as 20% Isomalt",107* %
same,% enzymatic activity of DispersinB (Mean),"52° C. for 3 hours, control without polyol = 100%, listed as 1% Isomalt",2%
same,% enzymatic activity of DispersinB (Mean),"52° C. for 3 hours, control without polyol = 100%, listed as 2.5% Isomalt",3%
same,% enzymatic activity of DispersinB (Mean),"52° C. for 3 hours, control without polyol = 100%, listed as 3% Isomalt",4* %
same,% enzymatic activity of DispersinB (Mean),"52° C. for 3 hours, control without polyol = 100%, listed as 5% Isomalt",11* %
same,% enzymatic activity of DispersinB (Mean),"52° C. for 3 hours, control without polyol = 100%, listed as 10% Isomalt",37* %
same,% enzymatic activity of DispersinB (Mean),"52° C. for 3 hours, control without polyol = 100%, listed as 15% Isomalt",82* %
same,% enzymatic activity of DispersinB (Mean),"52° C. for 3 hours, control without polyol = 100%, listed as 20% Isomalt",102* %
same,% enzymatic activity of DispersinB (Mean),"62° C. for 3 hours, control without polyol = 100%, listed as 1% Isomalt",0%
same,% enzymatic activity of DispersinB (Mean),"62° C. for 3 hours, control without polyol = 100%, listed as 2.5% Isomalt",0%
same,% enzymatic activity of DispersinB (Mean),"62° C. for 3 hours, control without polyol = 100%, listed as 3% Isomalt",0%
same,% enzymatic activity of DispersinB (Mean),"62° C. for 3 hours, control without polyol = 100%, listed as 5% Isomalt",0%
same,% enzymatic activity of DispersinB (Mean),"62° C. for 3 hours, control without polyol = 100%, listed as 10% Isomalt",0%
same,% enzymatic activity of DispersinB (Mean),"62° C. for 3 hours, control without polyol = 100%, listed as 15% Isomalt",12* %
same,% enzymatic activity of DispersinB (Mean),"62° C. for 3 hours, control without polyol = 100%, listed as 20% Isomalt",6* %
"OC[C@@H](O)[C@@H](O)CO [Erythritol, (2R,3S)-Butane-1,2,3,4-tetrol]",% enzymatic activity of DispersinB (Mean),"4° C., freshly made control without polyol = 100%, listed as 1% Erythritol",105%
same,% enzymatic activity of DispersinB (Mean),"4° C., freshly made control without polyol = 100%, listed as 2.5% Erythritol",97%
same,% enzymatic activity of DispersinB (Mean),"4° C., freshly made control without polyol = 100%, listed as 5% Erythritol",101%
same,% enzymatic activity of DispersinB (Mean),"4° C., freshly made control without polyol = 100%, listed as 10% Erythritol",97%
same,% enzymatic activity of DispersinB (Mean),"4° C., freshly made control without polyol = 100%, listed as 15% Erythritol",96%
same,% enzymatic activity of DispersinB (Mean),"4° C., freshly made control without polyol = 100%, listed as 20% Erythritol",104%
same,% enzymatic activity of DispersinB (Mean),"4° C., freshly made control without polyol = 100%, listed as 25% Erythritol",109%
same,% enzymatic activity of DispersinB (Mean),"42° C. for 3 hours, control without polyol = 100%, listed as 1% Erythritol",109* %
same,% enzymatic activity of DispersinB (Mean),"42° C. for 3 hours, control without polyol = 100%, listed as 2.5% Erythritol",107* %
same,% enzymatic activity of DispersinB (Mean),"42° C. for 3 hours, control without polyol = 100%, listed as 5% Erythritol",106* %
same,% enzymatic activity of DispersinB (Mean),"42° C. for 3 hours, control without polyol = 100%, listed as 10% Erythritol",107* %
same,% enzymatic activity of DispersinB (Mean),"42° C. for 3 hours, control without polyol = 100%, listed as 15% Erythritol",119* %
same,% enzymatic activity of DispersinB (Mean),"42° C. for 3 hours, control without polyol = 100%, listed as 20% Erythritol",113* %
same,% enzymatic activity of DispersinB (Mean),"42° C. for 3 hours, control without polyol = 100%, listed as 25% Erythritol",117* %
same,% enzymatic activity of DispersinB (Mean),"52° C. for 3 hours, control without polyol = 100%, listed as 1% Erythritol",6* %
same,% enzymatic activity of DispersinB (Mean),"52° C. for 3 hours, control without polyol = 100%, listed as 2.5% Erythritol",20* %
same,% enzymatic activity of DispersinB (Mean),"52° C. for 3 hours, control without polyol = 100%, listed as 5% Erythritol",33* %
same,% enzymatic activity of DispersinB (Mean),"52° C. for 3 hours, control without polyol = 100%, listed as 10% Erythritol",58* %
same,% enzymatic activity of DispersinB (Mean),"52° C. for 3 hours, control without polyol = 100%, listed as 15% Erythritol",78* %
same,% enzymatic activity of DispersinB (Mean),"52° C. for 3 hours, control without polyol = 100%, listed as 20% Erythritol",95* %
same,% enzymatic activity of DispersinB (Mean),"52° C. for 3 hours, control without polyol = 100%, listed as 25% Erythritol",121* %
same,% enzymatic activity of DispersinB (Mean),"62° C. for 3 hours, control without polyol = 100%, listed as 1% Erythritol",0%
same,% enzymatic activity of DispersinB (Mean),"62° C. for 3 hours, control without polyol = 100%, listed as 2.5% Erythritol",0%
same,% enzymatic activity of DispersinB (Mean),"62° C. for 3 hours, control without polyol = 100%, listed as 5% Erythritol",0%
same,% enzymatic activity of DispersinB (Mean),"62° C. for 3 hours, control without polyol = 100%, listed as 10% Erythritol",0%
same,% enzymatic activity of DispersinB (Mean),"62° C. for 3 hours, control without polyol = 100%, listed as 15% Erythritol",0%
same,% enzymatic activity of DispersinB (Mean),"62° C. for 3 hours, control without polyol = 100%, listed as 20% Erythritol",0%
same,% enzymatic activity of DispersinB (Mean),"62° C. for 3 hours, control without polyol = 100%, listed as 25% Erythritol",20* %
Propylene glycol,% enzymatic activity of DispersinB (Mean),"4° C., freshly made control without polyol = 100%, listed as Prop. Glycol 2.5%",119* %
same,% enzymatic activity of DispersinB (Mean),"4° C., freshly made control without polyol = 100%, listed as Prop. Glycol 5%",114* %
same,% enzymatic activity of DispersinB (Mean),"4° C., freshly made control without polyol = 100%, listed as Prop. Glycol 10%",117* %
same,% enzymatic activity of DispersinB (Mean),"4° C., freshly made control without polyol = 100%, listed as Prop. Glycol 20%",124* %
same,% enzymatic activity of DispersinB (Mean),"4° C., freshly made control without polyol = 100%, listed as Prop. Glycol 30%",106%
same,% enzymatic activity of DispersinB (Mean),"42° C. for 3 hours, control without polyol = 100%, listed as Prop. Glycol 2.5%",109* %
same,% enzymatic activity of DispersinB (Mean),"42° C. for 3 hours, control without polyol = 100%, listed as Prop. Glycol 5%",93* %
same,% enzymatic activity of DispersinB (Mean),"42° C. for 3 hours, control without polyol = 100%, listed as Prop. Glycol 10%",95* %
same,% enzymatic activity of DispersinB (Mean),"42° C. for 3 hours, control without polyol = 100%, listed as Prop. Glycol 20%",46* %
same,temperature stabilizing effect on DispersinB at elevated temperatures,,did not exhibit temperature stabilizing effects
OC[C@@H](O)[C@@H](O)[C@H](O)[C@H](O)CO [Mannitol],% enzymatic activity of DispersinB (Mean),"4° C., freshly made control without polyol = 100%, listed as 1% Mannitol",98%
same,% enzymatic activity of DispersinB (Mean),"4° C., freshly made control without polyol = 100%, listed as 2.5% Mannitol",100%
same,% enzymatic activity of DispersinB (Mean),"4° C., freshly made control without polyol = 100%, listed as 5% Mannitol",98%
same,% enzymatic activity of DispersinB (Mean),"4° C., freshly made control without polyol = 100%, listed as 10% Mannitol",102%
same,% enzymatic activity of DispersinB (Mean),"4° C., freshly made control without polyol = 100%, listed as 12% Mannitol",97%
same,% enzymatic activity of DispersinB (Mean),"42° C. for 3 hours, control without polyol = 100%, listed as 1% Mannitol",77%
same,% enzymatic activity of DispersinB (Mean),"42° C. for 3 hours, control without polyol = 100%, listed as 2.5% Mannitol",87* %
same,% enzymatic activity of DispersinB (Mean),"42° C. for 3 hours, control without polyol = 100%, listed as 5% Mannitol",88* %
same,% enzymatic activity of DispersinB (Mean),"42° C. for 3 hours, control without polyol = 100%, listed as 10% Mannitol",87* %
same,% enzymatic activity of DispersinB (Mean),"42° C. for 3 hours, control without polyol = 100%, listed as 12% Mannitol",86* %
same,temperature stabilizing effect on DispersinB at elevated temperatures,,did not exhibit temperature stabilizing effects
same,% enzymatic activity of DispersinB (Mean),"52° C. for 3 hours, control without polyol = 100%, listed as 5% Mannitol",1* %
same,% enzymatic activity of DispersinB (Mean),"52° C. for 3 hours, control without polyol = 100%, listed as 10% Mannitol",14* %
same,% enzymatic activity of DispersinB (Mean),"52° C. for 3 hours, control without polyol = 100%, listed as 12% Mannitol",53* %
